The source of these data is US9000186B2, “Ring-fused heterocyclic derivative” (Kyowa Hakko Kirin Co., Ltd., priority 2011, dated 2015).

Broadly, the IC50 is the midpoint of a concentration-inhibition curve.

Read-outs that look alike come from different tables or passages of the source.

Test [1] concerns the target T1, human Cav3.2 T-type Ca2+ channel (Homo sapiens, UniProt O95180).
T1 construct: expressed in transfected cells; host or cells: KJMGER8 cells (Namalwa cell-derived cell line)
The test is described as follows: Inhibitory effect for intracellular calcium response via Cav3.2 T-type Ca2+ channels (FLIPR Calcium 3 Assay Kit). Format: cell-based. (In general: A change in cytosolic calcium serves as a functional read-out for many receptors and channels.)

The test system of test [2] is morphine-induced pruritus mice. The test is described as follows: Inhibitory effect for pruritus in morphine-induced pruritus mice. Format: in vivo, male ddY mice. The following applies: oral, dose of 30 mg/kg or less, 30 minutes before intrathecal morphine (1 nmol/5 μL); scratching counted for 30 minutes. The procedure: Morphine (1 nmol/5 μL, dissolved in physiological saline) or physiological saline was intrathecally administered between the fifth and sixth lumbar vertebrae of male ddY mice using a microsyringe fitted with a 30-gauge injection needle. Mice administered with only morphine were used as a control group, and mice administered with only physiological saline as a physiological saline-administered group.
After the morphine administration, the number of scratching behavior with the hind legs which observed immediately in the mice was measured for 30 minutes. Because mice show a rapid, continuous scratching behavior in each scratching behavior, a series of such behavior was counted as a single scratching behavior.
The test compounds were administered 30 minutes before the morphine administration. Each test compound was suspended in a 0.5% methylcellulose solution, and orally administered in 10 mL/kg volume.

The mark [3] stands for this setting: human Cav3.2-expressing KJMGER8 cells (Namalwa-derived), calcium response induced by 5 mmol/L CaCl2, normalised to 3 μmol/L mibefradil, read-out: IC50 for the human Cav3.2 T-type Ca2+ current.

T1 sequence (O95180 whole entry): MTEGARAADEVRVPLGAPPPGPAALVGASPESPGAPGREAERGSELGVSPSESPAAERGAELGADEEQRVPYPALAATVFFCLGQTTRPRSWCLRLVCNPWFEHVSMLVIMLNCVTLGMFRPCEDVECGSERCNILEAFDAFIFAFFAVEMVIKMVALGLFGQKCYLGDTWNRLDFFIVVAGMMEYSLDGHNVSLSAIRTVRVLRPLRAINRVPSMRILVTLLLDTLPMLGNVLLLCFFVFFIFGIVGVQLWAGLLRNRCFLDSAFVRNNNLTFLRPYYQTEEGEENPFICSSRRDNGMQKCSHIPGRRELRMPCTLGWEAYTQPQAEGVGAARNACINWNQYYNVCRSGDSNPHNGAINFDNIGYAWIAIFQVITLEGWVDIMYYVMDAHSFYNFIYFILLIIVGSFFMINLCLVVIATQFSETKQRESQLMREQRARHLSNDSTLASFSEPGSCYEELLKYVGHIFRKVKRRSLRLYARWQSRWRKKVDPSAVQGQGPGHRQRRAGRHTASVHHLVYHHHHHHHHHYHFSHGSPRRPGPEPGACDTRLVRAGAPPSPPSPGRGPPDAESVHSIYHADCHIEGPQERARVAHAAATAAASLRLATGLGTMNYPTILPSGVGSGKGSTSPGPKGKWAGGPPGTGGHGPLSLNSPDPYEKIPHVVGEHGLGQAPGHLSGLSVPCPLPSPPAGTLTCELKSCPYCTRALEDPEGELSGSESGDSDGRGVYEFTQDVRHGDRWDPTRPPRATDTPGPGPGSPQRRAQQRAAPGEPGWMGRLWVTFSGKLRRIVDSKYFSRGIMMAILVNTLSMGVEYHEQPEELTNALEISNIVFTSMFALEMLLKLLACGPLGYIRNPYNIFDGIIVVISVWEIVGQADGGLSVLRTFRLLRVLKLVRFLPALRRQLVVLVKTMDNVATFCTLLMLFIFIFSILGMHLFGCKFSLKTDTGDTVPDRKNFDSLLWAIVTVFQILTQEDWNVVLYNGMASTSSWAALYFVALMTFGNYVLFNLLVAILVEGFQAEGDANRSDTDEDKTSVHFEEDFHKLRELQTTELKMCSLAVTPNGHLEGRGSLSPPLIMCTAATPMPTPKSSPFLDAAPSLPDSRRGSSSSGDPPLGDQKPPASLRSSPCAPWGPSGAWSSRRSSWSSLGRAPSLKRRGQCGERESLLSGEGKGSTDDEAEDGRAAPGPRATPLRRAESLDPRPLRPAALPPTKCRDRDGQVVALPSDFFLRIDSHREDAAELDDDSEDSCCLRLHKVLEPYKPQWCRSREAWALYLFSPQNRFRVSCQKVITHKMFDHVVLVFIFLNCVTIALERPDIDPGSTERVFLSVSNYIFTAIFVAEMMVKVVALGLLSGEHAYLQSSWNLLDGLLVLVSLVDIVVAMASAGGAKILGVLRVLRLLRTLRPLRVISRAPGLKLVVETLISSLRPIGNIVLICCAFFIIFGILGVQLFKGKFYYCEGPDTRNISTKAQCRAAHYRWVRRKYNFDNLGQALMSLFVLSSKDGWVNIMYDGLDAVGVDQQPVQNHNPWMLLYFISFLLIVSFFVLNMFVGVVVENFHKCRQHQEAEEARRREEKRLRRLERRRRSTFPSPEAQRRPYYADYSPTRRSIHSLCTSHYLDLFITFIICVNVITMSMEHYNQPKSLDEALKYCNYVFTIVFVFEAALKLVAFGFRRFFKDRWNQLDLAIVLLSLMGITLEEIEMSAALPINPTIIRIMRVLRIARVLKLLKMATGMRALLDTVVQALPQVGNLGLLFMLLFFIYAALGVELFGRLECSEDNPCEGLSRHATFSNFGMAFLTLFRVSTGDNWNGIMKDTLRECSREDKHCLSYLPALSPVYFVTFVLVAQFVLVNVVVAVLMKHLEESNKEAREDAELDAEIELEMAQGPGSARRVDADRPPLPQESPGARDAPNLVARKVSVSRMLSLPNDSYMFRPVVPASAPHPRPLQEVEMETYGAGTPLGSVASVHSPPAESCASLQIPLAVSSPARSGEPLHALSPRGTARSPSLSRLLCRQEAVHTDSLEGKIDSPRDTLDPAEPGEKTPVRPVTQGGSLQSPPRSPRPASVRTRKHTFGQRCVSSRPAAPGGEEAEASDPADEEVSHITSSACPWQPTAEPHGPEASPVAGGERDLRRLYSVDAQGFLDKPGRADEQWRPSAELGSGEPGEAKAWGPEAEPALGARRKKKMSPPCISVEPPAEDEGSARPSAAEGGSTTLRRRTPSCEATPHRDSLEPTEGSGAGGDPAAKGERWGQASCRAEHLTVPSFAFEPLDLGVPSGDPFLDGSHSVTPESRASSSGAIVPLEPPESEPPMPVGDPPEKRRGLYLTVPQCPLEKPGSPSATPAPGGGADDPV

Regarding `CC(C)c1nc2cc(C(=O)NC3CCOCC3)c(Cl)cn2c1CC1CCC(F)(F)CC1` [Compound 111, 6-Chloro-3-(4,4-difluorocyclohexylmethyl)-2-isopropyl-N-(tetrahydro-2H-pyran-4-yl)imidazo[1,2-a]pyridine-7-carboxamide], in test [1], the IC50 was below 100 nM. For the same compound, in test [2], the “increase of the scratching behavior observed in the morphine-induced pruritus mice” value (from here on “increase”) is given as “inhibited”.

Regarding `CC(C)(C)c1nc2cc(C(=O)NC3CCOCC3)c(Cl)cn2c1CC1CCC(F)(F)CC1` [Compound 113, 2-tert-Butyl-6-chloro-3-(4,4-difluorocyclohexylmethyl)-N-(tetrahydro-2H-pyran-4-yl)imidazo[1,2-a]pyridine-7-carboxamide], in test [1], the IC50 was below 100 nM. The “increase” value in test [2] is reported as “inhibited”.

`CC1(c2nc3cc(C(=O)NC4CCOCC4)c(Cl)cn3c2CC2CCC(F)(F)CC2)CC1` [Compound 114, 6-Chloro-3-(4,4-difluorocyclohexylmethyl)-2-(1-methylcyclopropyl)-N-(tetrahydro-2H-pyran-4-yl)imidazo[1,2-a]pyridine-7-carboxamide]: the IC50 in test [1] (setting [3]) is below 100 nM. Besides, the “increase” value in test [2] is “inhibited”.

Take `O=C(Nc1ccn2c(CC3CCC(F)(F)CC3)c(C(F)(F)F)nc2c1)c1ccccc1` [Compound 126, N-{3-(4,4-Difluorocyclohexylmethyl)-2-trifluoromethylimidazo[1,2-a]pyridin-7-yl}benzamide]: the IC50 in test [1] is below 100 nM. Further, the “increase” value in test [2] was “inhibited”.

Take `CC(C)c1nc2cc(C(=O)Nc3ccccc3)ccn2c1S(=O)(=O)N1CC(F)(F)C1` [Compound 133, 3-(3,3-Difluoroazetidin-1-ylsulfonyl)-2-isopropyl-N-phenylimidazo[1,2-a]pyridine-7-carboxamide]: the IC50 in test [1] (setting [3]) was below 100 nM. The “increase” value in test [2] is given as “inhibited”.

On to `Cc1cc(NC(=O)c2cc3nc(C(C)C)c(S(=O)(=O)N4CC(F)(F)C4)n3cc2Cl)on1` [Compound 148, 6-Chloro-3-(3,3-difluoroazetidin-1-ylsulfonyl)-2-isopropyl-N-(3-methylisooxazol-5-yl)imidazo[1,2-a]pyridine-7-carboxamide], for which the IC50 in test [1] (setting [3]) is below 100 nM. Moreover, the “increase” value in test [2] was “inhibited”.

As to `CC(C)(O)CNC(=O)c1cc(Cl)n2c(CC3CCC(F)(F)CC3)c(C(F)(F)F)nc2c1` [Compound 182, 5-Chloro-3-(4,4-difluorocyclohexylmethyl)-N-(2-hydroxy-2-methylpropyl)-2-trifluoromethylimidazo[1,2-a]pyridine-7-carboxamide], in test [1], the IC50 was below 100 nM. In test [2], the “increase” value is listed as “inhibited”.
